# Results as given in ChEMBL document CHEMBL1149107, “Structure-activity relationships of potent, selective inhibitors of neuronal nitric oxide synthase based on the 6-phenyl-2-aminopyridine structure” (J Med Chem, 2004).
# Experiments:
# [1] = molecular target: Nitric oxide synthase, inducible (Homo sapiens, UniProt P35228); experiment: In vitro inhibition of human inducible nitric oxide synthase
# Nitric oxide synthase 3 = molecular target: T1, Nitric oxide synthase 3 (Homo sapiens, UniProt P29474); experiment: In vitro inhibition of human endothelial nitric oxide synthase
# T1 sequence (P29474 whole entry): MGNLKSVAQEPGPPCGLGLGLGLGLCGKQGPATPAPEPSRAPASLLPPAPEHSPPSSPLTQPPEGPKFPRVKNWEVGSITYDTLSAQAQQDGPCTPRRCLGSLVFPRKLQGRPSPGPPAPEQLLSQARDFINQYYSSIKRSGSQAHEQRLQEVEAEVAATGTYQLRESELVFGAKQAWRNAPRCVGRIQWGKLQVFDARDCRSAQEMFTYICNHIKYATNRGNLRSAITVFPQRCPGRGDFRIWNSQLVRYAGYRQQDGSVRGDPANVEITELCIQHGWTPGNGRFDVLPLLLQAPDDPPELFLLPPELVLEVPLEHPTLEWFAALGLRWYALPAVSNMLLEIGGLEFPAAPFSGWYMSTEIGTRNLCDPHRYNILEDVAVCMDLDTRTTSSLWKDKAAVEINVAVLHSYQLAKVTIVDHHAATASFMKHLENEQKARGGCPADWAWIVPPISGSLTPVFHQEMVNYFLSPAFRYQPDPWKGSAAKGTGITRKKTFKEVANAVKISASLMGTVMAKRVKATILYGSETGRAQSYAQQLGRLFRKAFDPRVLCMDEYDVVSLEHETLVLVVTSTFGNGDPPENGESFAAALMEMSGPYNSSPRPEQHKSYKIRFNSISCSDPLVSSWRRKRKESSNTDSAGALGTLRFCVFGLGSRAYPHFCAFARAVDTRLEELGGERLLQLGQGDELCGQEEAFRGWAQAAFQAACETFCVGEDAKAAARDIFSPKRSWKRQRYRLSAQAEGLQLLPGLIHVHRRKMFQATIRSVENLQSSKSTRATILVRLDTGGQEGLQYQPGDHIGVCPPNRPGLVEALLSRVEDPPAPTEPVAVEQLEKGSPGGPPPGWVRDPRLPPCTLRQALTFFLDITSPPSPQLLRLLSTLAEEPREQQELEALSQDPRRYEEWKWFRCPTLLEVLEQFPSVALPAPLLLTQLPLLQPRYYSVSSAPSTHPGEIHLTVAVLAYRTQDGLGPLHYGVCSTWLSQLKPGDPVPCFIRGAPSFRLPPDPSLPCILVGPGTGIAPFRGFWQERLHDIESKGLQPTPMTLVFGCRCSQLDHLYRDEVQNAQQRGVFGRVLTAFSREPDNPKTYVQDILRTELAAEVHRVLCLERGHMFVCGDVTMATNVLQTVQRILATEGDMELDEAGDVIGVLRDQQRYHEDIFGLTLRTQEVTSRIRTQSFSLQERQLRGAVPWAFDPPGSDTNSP
# Nitric oxide synthase 1 [2] = molecular target: Nitric oxide synthase 1 (Rattus norvegicus, UniProt P29476); experiment: In vitro inhibition of rat neuronal nitric oxide synthase
# Chain of Nitric oxide synthase 1 (Rattus norvegicus, UniProt P29476) (P29476 whole entry): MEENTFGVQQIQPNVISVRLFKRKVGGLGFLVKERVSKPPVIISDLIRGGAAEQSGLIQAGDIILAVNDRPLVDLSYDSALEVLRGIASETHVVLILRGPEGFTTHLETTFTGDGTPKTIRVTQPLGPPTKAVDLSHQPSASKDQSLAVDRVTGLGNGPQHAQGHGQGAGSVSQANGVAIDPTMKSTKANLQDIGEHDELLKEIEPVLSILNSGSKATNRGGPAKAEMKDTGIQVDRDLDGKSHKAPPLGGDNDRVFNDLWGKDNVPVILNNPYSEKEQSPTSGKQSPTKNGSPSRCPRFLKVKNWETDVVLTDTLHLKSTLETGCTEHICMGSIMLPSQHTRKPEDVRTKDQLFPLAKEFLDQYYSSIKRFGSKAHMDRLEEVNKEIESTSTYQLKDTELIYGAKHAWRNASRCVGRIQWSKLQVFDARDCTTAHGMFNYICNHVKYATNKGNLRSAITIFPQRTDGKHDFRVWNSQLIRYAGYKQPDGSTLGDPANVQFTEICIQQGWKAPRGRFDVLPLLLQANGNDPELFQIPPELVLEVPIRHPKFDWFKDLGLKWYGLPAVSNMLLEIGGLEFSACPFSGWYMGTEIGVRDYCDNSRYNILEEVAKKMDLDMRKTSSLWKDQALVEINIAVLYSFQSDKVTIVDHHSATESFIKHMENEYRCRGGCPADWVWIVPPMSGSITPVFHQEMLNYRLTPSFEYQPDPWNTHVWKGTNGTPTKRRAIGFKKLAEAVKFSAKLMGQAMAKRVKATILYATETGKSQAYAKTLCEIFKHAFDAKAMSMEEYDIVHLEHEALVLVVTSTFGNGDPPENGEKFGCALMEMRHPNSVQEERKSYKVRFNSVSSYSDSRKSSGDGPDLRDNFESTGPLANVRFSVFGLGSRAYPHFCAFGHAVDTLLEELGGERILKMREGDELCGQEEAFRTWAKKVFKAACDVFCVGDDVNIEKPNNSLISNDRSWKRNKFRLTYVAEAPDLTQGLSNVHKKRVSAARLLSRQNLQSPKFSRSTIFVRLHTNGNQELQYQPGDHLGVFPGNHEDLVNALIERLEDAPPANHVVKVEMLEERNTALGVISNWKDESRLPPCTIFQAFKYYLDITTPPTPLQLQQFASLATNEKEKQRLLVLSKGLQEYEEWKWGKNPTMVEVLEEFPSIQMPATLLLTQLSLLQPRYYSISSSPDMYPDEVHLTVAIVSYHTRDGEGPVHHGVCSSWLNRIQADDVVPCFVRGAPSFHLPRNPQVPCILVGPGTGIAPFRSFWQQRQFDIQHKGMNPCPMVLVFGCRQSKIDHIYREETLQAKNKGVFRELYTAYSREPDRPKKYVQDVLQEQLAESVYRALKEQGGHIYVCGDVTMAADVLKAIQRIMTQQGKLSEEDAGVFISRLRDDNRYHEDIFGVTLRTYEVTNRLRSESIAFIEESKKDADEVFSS
# Nitric oxide synthase 1 [3] = molecular target: Nitric oxide synthase 1 (Homo sapiens, UniProt P29475); experiment: In vitro inhibition of human neuronal nitric oxide synthase
# Chain of Nitric oxide synthase 1 (Homo sapiens, UniProt P29475) (P29475 whole entry): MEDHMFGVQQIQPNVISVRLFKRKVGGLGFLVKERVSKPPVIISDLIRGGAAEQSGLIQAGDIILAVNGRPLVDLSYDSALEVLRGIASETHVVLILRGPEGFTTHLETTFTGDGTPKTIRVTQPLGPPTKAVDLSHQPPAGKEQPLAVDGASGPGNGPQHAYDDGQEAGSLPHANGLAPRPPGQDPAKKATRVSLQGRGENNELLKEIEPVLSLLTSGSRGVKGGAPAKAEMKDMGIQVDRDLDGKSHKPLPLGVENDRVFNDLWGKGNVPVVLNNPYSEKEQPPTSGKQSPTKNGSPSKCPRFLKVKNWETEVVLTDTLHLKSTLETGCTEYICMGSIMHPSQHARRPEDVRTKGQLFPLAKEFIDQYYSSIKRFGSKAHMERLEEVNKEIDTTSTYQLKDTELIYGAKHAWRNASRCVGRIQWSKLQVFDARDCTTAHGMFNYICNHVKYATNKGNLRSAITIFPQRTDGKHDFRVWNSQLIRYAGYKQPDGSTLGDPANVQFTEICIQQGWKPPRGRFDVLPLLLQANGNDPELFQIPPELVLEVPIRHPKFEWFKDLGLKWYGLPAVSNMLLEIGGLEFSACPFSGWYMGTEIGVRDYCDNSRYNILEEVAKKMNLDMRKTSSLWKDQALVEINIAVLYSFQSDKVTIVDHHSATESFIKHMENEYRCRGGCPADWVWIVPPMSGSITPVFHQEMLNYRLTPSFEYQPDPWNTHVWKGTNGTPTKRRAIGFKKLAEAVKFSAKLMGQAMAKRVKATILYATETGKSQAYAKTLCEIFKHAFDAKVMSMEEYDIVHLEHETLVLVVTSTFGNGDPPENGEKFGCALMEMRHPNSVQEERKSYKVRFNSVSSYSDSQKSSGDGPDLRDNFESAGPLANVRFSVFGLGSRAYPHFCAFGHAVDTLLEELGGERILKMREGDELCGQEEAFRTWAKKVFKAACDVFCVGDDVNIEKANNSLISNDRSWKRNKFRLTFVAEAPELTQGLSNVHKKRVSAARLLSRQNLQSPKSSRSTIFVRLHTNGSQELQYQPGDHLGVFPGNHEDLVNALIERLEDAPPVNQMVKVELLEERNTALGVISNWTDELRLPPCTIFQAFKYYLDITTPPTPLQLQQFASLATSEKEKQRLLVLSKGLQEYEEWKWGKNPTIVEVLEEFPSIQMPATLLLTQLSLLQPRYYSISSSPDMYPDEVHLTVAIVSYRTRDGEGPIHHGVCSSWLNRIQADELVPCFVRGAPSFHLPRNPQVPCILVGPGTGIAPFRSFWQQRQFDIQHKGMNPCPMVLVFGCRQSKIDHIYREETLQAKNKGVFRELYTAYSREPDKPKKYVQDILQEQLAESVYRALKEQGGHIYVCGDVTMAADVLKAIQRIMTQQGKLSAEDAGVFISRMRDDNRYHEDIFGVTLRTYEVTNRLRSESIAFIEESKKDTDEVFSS
# Chain of Nitric oxide synthase, inducible (P35228 whole entry): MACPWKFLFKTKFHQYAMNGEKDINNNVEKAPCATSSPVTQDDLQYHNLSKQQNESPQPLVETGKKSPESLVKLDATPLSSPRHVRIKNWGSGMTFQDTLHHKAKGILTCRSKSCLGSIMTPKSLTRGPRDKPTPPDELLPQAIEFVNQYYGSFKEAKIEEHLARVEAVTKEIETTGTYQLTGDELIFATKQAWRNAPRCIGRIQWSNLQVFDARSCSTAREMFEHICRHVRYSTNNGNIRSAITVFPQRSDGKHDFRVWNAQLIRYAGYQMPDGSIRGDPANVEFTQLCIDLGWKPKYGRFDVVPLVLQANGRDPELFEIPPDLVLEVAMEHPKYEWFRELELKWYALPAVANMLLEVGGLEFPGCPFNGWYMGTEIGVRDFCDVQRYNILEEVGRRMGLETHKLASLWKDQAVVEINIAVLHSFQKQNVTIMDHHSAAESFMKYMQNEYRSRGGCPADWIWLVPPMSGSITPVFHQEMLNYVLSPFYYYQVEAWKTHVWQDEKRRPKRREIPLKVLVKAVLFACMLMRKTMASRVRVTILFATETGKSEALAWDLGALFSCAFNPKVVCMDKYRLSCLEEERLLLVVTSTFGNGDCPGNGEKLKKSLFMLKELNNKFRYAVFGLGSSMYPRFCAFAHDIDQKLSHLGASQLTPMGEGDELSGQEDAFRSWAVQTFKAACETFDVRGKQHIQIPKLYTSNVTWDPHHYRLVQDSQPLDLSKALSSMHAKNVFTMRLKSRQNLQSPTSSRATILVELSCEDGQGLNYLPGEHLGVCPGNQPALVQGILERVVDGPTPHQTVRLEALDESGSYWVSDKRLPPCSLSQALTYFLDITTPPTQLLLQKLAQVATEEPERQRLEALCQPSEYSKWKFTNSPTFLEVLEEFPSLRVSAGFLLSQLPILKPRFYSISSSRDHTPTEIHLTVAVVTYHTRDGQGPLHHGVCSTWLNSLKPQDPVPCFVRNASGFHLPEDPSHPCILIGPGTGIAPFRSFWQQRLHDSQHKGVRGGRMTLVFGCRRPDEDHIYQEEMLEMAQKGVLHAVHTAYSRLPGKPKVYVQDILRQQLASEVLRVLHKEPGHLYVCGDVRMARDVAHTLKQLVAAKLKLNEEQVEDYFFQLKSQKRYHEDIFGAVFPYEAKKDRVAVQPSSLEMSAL
Structure (SMILES),IC50 [1] [nM],IC50 (Nitric oxide synthase 3) [nM],IC50 (Nitric oxide synthase 1 [2]) [nM],IC50 (Nitric oxide synthase 1 [3]) [nM]
CN(C)CCOc1ccc(-c2cccc(N)n2)c2c1CCCC2,517,3530,34,70.9
CN1CCCC1COc1ccc(-c2cccc(N)n2)c2ccccc12 (stereo unspecified),2850,2930,80.5,112
Nc1cccc(-c2ccc(OCCN3CCCC3)c3c2CCC3)n1,450,785,59,117
Nc1cccc(-c2ccc(OCC3CC4CCN3CC4)c3ccccc23)n1 (stereo unspecified),5800,3770,88,96.3
Nc1cccc(-c2ccc(OCCN3CCCC3)c3c2CCCC3)n1,358,2210,80,141
CN1CCN(CCOc2ccc(-c3cccc(N)n3)c3ccccc23)CC1,9380,12000,306,390
CN1CCN(CCOc2ccc(-c3cccc(N)n3)c3c2CCC3)CC1,2200,3030,82,123
CN(C)CCOc1ccc(-c2cccc(N)n2)c2c1CCCCC2,2100,5750,93,109
CN(C)CCOc1ccc(-c2cccc(N)n2)c2c1C1CCC2C1 (stereo unspecified),1080,19000,185,120
CN(C)CCOc1ccc(-c2cccc(N)n2)c2c1CCC2,592,1570,21.8,50.6
CN(C)CCOc1ccc(-c2cccc(N)n2)c2ccccc12,4600,5790,167,220
CN1CCC(Oc2ccc(-c3cccc(N)n3)c3ccccc23)C1 (stereo unspecified),2070,13000,48,70.3
O=[N+]([O-])c1cccc2cn[nH]c12 [7-NITROINDAZOLE],,,,2500
CN1CCN(CCOc2ccc(-c3cccc(N)n3)c3c2CCCC3)CC1,1280,10600,99.2,121
Cc1ccnc(N)c1,,,40,
CN(C)C1CCCCC1Oc1ccc(-c2cccc(N)n2)c2ccccc12 (stereo unspecified),2370,13000,140,161
Nc1cccc(-c2ccc(OCCN3CCCC3)c3ccccc23)n1,1770,3710,175,250
CN(C)C1CCN(CCOc2ccc(-c3cccc(N)n3)c3ccccc23)CC1,5750,7020,195,203
